Earlier results on 1 sequence are cited in article PMC9074375 (The journal of physical chemistry. B, 2022).

The subject of this series is malignant cells.

On to FLGVLALLGYLAVRPFLPKKKQQK [NAF-1^44-67], for which, where the note is “malignant versus normal cells”, the “permeation of the plasma membrane” value is “selectively permeates the plasma membrane of malignant but not normal cells”. For the same sequence, the “killing of cancer cells” value (peptide alone, without therapeutic cargo) was “kill cancer cells by itself, without carrying additional therapeutic cargo and without damaging normal cells”.
